In assay [1] the test system is voltage operated calcium channels. Description: inhibition of depolarization-stimulated 45Ca uptake into brain synaptosomes. The settings on record: inhibition of K+-stimulated 45Ca uptake, rat cerebral cortex synaptosomes (P2), 15 s incubation. The assay is classed as biochemical, male Wistar rat. From the text: The pharmacological properties of the compounds of the invention can be illustrated by determining their capability to inhibit calcium uptake into brain synaptosomes.
Depolarization of neuronal membranes leads to an opening of socalled `voltage operated calcium channels` (VOC) in the membranes which allows a massive influx of calcium from the extracellular space. A crude synaptosomal preparation (socalled P2 fraction) contains small vesicles surrounded by neuronal membrane and it is possible in such a preparation to study a depolarization-induced opening of VOC.
A male Wistar rat is decapitated and the cerebral cortex removed and homogenized in 20 ml. of ice-cold 0.32 M sucrose using a glass homogenizer with a teflon pestle. All subsequent steps for isolation of synaptosomes are done at 0°-4° C. The homogenate is centrifuged at 1000×g for 10 min and the resulting supernatant is re-centrifuged at 18000×g for 20 min. This pellet (P2) is resuspended in 0.32 M sucrose (10 ml per g of original tissue) with a teflon pestle.
The tubes are pre-incubated for 30 min on ice and then for 6 min at 37° C. in a water bath.
The incubation is continued for 15 s.
The amount of radioactivity on the filter disc is determined by liquid scintillation spectrometry.
Test substances are dissolved in 10 ml of 48% ethanol at a concentration of 0.44 mg/ml. Dilutions are made in 48% ethanol to give final concentrations of 0.1, 0.3, 1, 3 and 0 10 μg/ml. Experiments are performed in duplicate. Controls for depolarized and nondepolarized samples are included in the assay and test substances are only tested in depolarized samples.
The IC50 value is estimated from dose response curves.

Assay [2] relates to peripheral calcium uptake, e.g. in blood vessels and the heart. The note with it: cited from earlier work.

Data on twelve compounds can be found in patent US5019582A, “Piperidine compounds and their preparation and use” (Novo Nordisk A/S, priority 1986, dated 1991).

Values after ≈ are worked out from the molar mass of the structure shown. Counter-ions that a name gives are not always drawn.

The term IC50 denotes the midpoint of a concentration-inhibition curve. `CCCCCCCCN1CC[C@@H](c2ccc(F)cc2)[C@H](COc2ccc3c(c2)OCO3)C1` (single isomer, unassigned) [(-)-trans-4-(-4-fluoropheny1)-3-(3,4-methylenedioxyphenoxymethyl)-1-octylpiperidine hydrochloride]: the IC50 in assay [1] was 2.2 µg/mL.

Take `CCCCCN1CC[C@@H](c2ccccc2)[C@H](COc2ccc3c(c2)OCO3)C1` (single isomer, unassigned): in assay [1], the 50% inhibitory concentration (IC50) turned out to be 2.4 µg/mL (≈ 6.29 µM).

In the case of `C=CCN1CC[C@@H](c2ccc(F)cc2)[C@H](COc2ccc3c(c2)OCO3)C1` (single isomer, unassigned) [(-)--trans-4-(-4-fluorophenyl)-3-(3,4-methylenedioxyphenoxymethyl)-1-allyl-piperidine hydrochloride], the IC50 in assay [1] came out at 0.8 µg/mL.

On to `CCCCN1CC[C@@H](c2ccc(F)cc2)[C@H](COc2ccc(OC)cc2)C1` (single isomer, unassigned), for which the 50% inhibitory concentration (IC50) in assay [1] stood at 2.3 µg/mL (≈ 6.19 µM).

For the compound `COc1ccc(CCN(C)CCCC(C#N)(c2ccc(OC)c(OC)c2)C(C)C)cc1OC` (stereo not drawn) [Verapamil], the “activity against peripheral calcium uptake” value in assay [2] is “have activity”.

As to `COc1ccc(OC[C@@H]2CN(C(C)C)CC[C@H]2c2ccc(F)cc2)cc1.Cl` (single isomer, unassigned) [(-)-trans-1-isopropyl-4-(4-fluorophenyl)-3-(4-methoxyphenoxymethyl)-piperidine hydrochloride], the concentration for half-maximal inhibition (IC50) in assay [1] stood at 4.3 µg/mL.

On to `CCCCCN1CC[C@@H](c2ccc(F)cc2)[C@H](COc2ccc3c(c2)CCCC3)C1` (single isomer, unassigned), for which, in assay [1], the 50% inhibitory concentration (IC50) turned out to be 0.4 µg/mL (≈ 0.977 µM).

As to `CCCCCN1CC[C@@H](c2ccc(F)cc2)[C@H](COc2ccc3c(c2)OCO3)C1` (single isomer, unassigned), the concentration for half-maximal inhibition (IC50) in assay [1] is 1.5 µg/mL (≈ 3.75 µM).

Consider `COc1ccc([C@@H]2Sc3ccccc3N(CCN(C)C)C(=O)[C@@H]2OC(C)=O)cc1` [Diltiazem], for which, in assay [2], the “activity against peripheral calcium uptake” value is recorded as “have activity”.

`CCCCN1CC[C@@H](c2ccc(F)cc2)[C@H](COc2ccc3c(c2)OCO3)C1` (single isomer, unassigned): the IC50 in assay [1] is 1.9 µg/mL (≈ 4.93 µM).

`CCN1CC[C@@H](c2ccc(F)cc2)[C@H](COc2ccc(C(C)(C)C)cc2)C1.Cl` (relative stereo) [trans-1-ethyl-4-(4-fluorophenyl)-3-(4-t-butylphenoxymethyl)piperidine hydrochloride]: in assay [1], the IC50 amounted to 2.5 µg/mL.

For `COC(=O)C1=C(C)NC(C)=C(C(=O)OC)C1c1ccccc1[N+](=O)[O-]` [Nifedipin], the “activity against peripheral calcium uptake” value in assay [2] is recorded as “have activity”.
